Laboratory results as given in paper PMC5603512, “Discovery, Semisynthesis, Antiparasitic and Cytotoxic Evaluation of 14-Membered Resorcylic Acid Lactones and Their Derivatives” (Scientific Reports, 2017).
pIC50: −log10 of the molar value. Like-named read-outs stand apart in the source and are kept apart here.

Legend:
[1] = Cytotoxicity MTT assay, K562; conditions: human
Method: (§1) All of the compounds were also evaluated for their cytotoxic properties against six human cancer cell lines (lung carcinoma epithelian (A549), colon carcinoma (HCT-116), pancreatic carcinoma (BXPC-3), breast cancer (MCF-7), cervical epithelium (HeLa), and erythroleukemic (K562)) and a human umbilical vein endothelial cell (HUVEC) line (Table 2).
(§2) The cytotoxicity against HCT-116, BXPC-3, HeLa, MCF-7, A-549, and HUVEC cell lines was evaluated using the SRB method. The cytotoxicity against K562 and Vero cell lines was evaluated using the MTT method. Adriamycin was used as a positive control. All cells were cultivated in T-75 flasks containing 10% Fetal Bovine Serum (FBS), Dulbeco’s Modified Eagle Medium (DMEM) with 2 mM L-glutamine, and 1% penicillin-streptomycin at 37 °C in a humidified atmosphere with 5% CO2. For SRB assay, cells in their log phase of growth were seeded into 96 well micro plates (4 × 10^4 cells per well) and followed by treating with test samples at 10 μM or DMSO. After incubation at 37 °C for 72 h, the cells were fixed with the cold 20% (w/v) TCA for 2 h and stained with Sulforhodamine B (SRB) dye for 0.5 h. The protein-bound dye is dissolved in Tris base solution for OD determination at 540 nm on an ELISA Plate Reader. For MTT assay, cells (5 × 10^3 cells per well) were plated in 96 well micro plates. After cell attachment overnight, new medium containing test compounds or DMSO was added. The plate was incubated for 48 h at 37 °C and incubated with 3-(4,5-dimethylthiazol-2-yl)-2,5-diphenyltetrazolium bromide (MTT) for additional 2–4 hours. The assay plate was then read at 490 nm on an ELISA Plate Reader. The data were obtained from experiments carried out in triplicate.

[2] = Cytotoxicity SRB assay, MCF-7; conditions: human
Method: as §1, §2

[3] = Cytotoxicity SRB assay, A-549; conditions: human
Method: as §1, §2

[4] = Cytotoxicity SRB assay, HeLa; conditions: human
Method: as §1, §2

Trypanosoma cruzi = assay: Antitrypanosomal assay (beta-galactosidase reporter, intracellular amastigotes in Vero cells); assay type: cell-based; conditions: for pIC50: Trypanosoma cruzi; as to Trypanosoma cruzi IC50: key: I: Inactive
Method: Briefly, the expression of the reporter gene for beta-galactosidase (β-Gal) in the Tulahuen clone C4 of T. cruzi is assessed by colorimetry at 570 nm, which correlates with the parasite growth. Assays were performed on the intracellular amastigote form of the parasite infecting African green monkey kidney (Vero) cells, incubated for 120 h at 37 °C with 5% CO2.

[5] = Cytotoxicity SRB assay, BXPC-3; conditions: human
Method: as §1, §2

Plasmodium falciparum = assay: Antiplasmodial assay (PicoGreen growth inhibition in infected human erythrocytes); assay type: cell-based
Method: Activity against the causative agent of malaria was performed by culturing human erythrocytes and infecting them with P. falciparum, as described by Trager and Jensen[36]. Briefly, the W2 (Chloroquine resistant) and 3D7 (Chloroquine sensitive) strains of P. falciparum were cultured in RPMI 1640 medium (Sigma-Aldrich, USA) supplemented with 10% human serum (from O+ blood) at a hematocrit of 2% erythrocytes (O+) at 37 °C in a gas mixture of 5% CO2, 5% O2, and 90% N2. Parasites were synchronized by a temperature cycling technique as described by Almanza et al.[37]

Leishmania donovani = assay: Antileishmanial assay (PicoGreen); assay type: cell-based
Method: The anti-leishmania activity was evaluated following the protocol described by Calderon et al.[39], using the fluorescent DNA intercalator PicoGreen (Invitrogen, USA). The species responsible for visceral leishmaniasis, L. donovani, was used for the assays.

[6] = Cytotoxicity SRB assay, HCT-116; conditions: human
Method: as §1, §2

[7] = Toxicity against Vero cells (MTT); assay type: cell-based, African green monkey; conditions: African green monkey, MTT, 48 h
Method: It should be emphasized that toxicity is a major concern of drug discovery and development. The above active compounds were evaluated for in vitro toxicity against a mammalian kidney cell line (Vero). The selectivity index (SI) was used as the evaluation parameter of drug potential of the test samples by comparing the toxicity on the Vero cell line (CC50) and the selective inhibitory effect on P. falciparum, L. donovani or T. cruzi (IC50) calculated here as CC50/IC50.
Adriamycin was used as a positive control.

[8] = Tulahuen clone C4, intracellular amastigotes in Vero cells, 120 h
[9] = BXPC-3 pancreatic carcinoma cells
[10] = Erythrocyte, in vitro, W2 and 3D7 strains cultured, strain of the values not stated, read-out: Plasmodium falciparum IC50
[11] = in vitro, read-out: Leishmania donovani IC50
[12] = Vero cells (mammalian kidney cell line)
[13] = 3D7, Erythrocyte, read-out: Plasmodium falciparum IC50
[14] = read-out: Leishmania donovani IC50

SMILES | IC50 at 48 h ([1]; K562 erythroleukemic cells) [µM] | IC50 at 72 h ([2]; MCF-7 breast cancer cells) [µM] | IC50 at 72 h ([3]; A-549 lung carcinoma cells) [µM] | IC50 at 72 h ([4]; HeLa cervical epithelium cells) [µM] | Trypanosoma cruzi IC50 (Trypanosoma cruzi; [8]) | IC50 at 72 h [5, 9] [µM] | pIC50 (Plasmodium falciparum; [10]) | pIC50 (Leishmania donovani; [11]) | IC50 at 72 h ([6]; HCT-116 colon carcinoma cells) [µM] | further results
COc1cc(O)c2c(c1)/C=C/C[C@H](O)[C@@H](O)C(=O)/C=C/C[C@H](C)OC2=O [Compound 4] | > 10 | > 10 | > 10 | > 10 | I | > 10 | < 4.51 | 4.82 | > 10 | –
COc1cc(O)c2c(c1Cl)/C=C/C[C@H](O)[C@@H]1OC(C)(C)O[C@H]1/C=C/C[C@H](C)OC2=O [Compound 17] | > 10 | > 10 | > 10 | > 10 | I | > 10 | < 4.51 | < 4.80 | > 10 | CC50 at 48 h [7, 12]: 143 µM
COc1cc(O)c2c(c1)/C=C/C[C@H](O)[C@H](O)[C@@H](O)CCC[C@H](C)OC2=O [Compound 10] | – | – | – | – | I | – | – | – | – | CC50 at 48 h [7]: 274 µM; IC50 at 48 h [1]: > 10 µM; IC50 at 72 h [2]: > 10 µM; IC50 at 72 h [3]: > 10 µM; IC50 at 72 h [4]: > 10 µM; IC50 at 72 h [5]: > 10 µM; pIC50 (Plasmodium falciparum; [13]): < 4.51; pIC50 (Leishmania donovani; [14]): < 4.80; IC50 at 72 h [6]: > 10 µM
O=C(Cn1ccnc1[N+](=O)[O-])NCc1ccccc1 [benznidazole, reference compound] | – | – | – | – | – | – | – | – | – | pIC50 (Trypanosoma cruzi; Vero, control drug, sentence ends with ref 41, read-out: IC50 of control drug, antitrypanosomal assay): 5.41
COc1cc(O)c2c(c1Cl)/C=C/C[C@H](O)[C@H](O)[C@@H](O)/C=C/C[C@H](C)OC2=O [Compound 16] | > 10 | > 10 | > 10 | > 10 | I | > 10 | < 4.51 | < 4.80 | > 10 | CC50 at 48 h [7, 12]: 260 µM
COc1cc(O)c2c(c1)/C=C/C[C@@H](O)[C@@H](O)C(=O)/C=C/C[C@H](C)OC2=O [Compound 5] | > 10 | > 10 | > 10 | > 10 | I | > 10 | < 4.51 | < 4.80 | > 10 | –
CCN(CC)CCCC(C)Nc1ccnc2cc(Cl)ccc12 (stereo not drawn) [chloroquine, reference compound] | – | – | – | – | – | – | – | – | – | pIC50 (Plasmodium falciparum; Erythrocyte, read-out: IC50 of positive control, antiplasmodial assay): 7.48
COc1cc2c(c(OC(=O)c3cccs3)c1)C(=O)O[C@@H](C)C/C=C/C(=O)[C@@H](OC(=O)c1cccs1)[C@@H](OC(=O)c1cccs1)C/C=C/2 [Compound 22] | – | – | – | – | – | – | 4.70 | 5.52 | – | CC50 at 48 h [7, 12]: 11.5 µM; pIC50 (Trypanosoma cruzi; Tulahuen clone C4, intracellular amastigotes in Vero cells, 120 h, read-out: Trypanosoma cruzi IC50): 5.20
C[C@@H]1[C@H](O)[C@@H](C)/C=C/C=C/C=C/C=C/C=C/C=C/C=C/[C@H](O[C@@H]2O[C@H](C)[C@@H](O)[C@H](N)[C@@H]2O)C[C@@H]2O[C@](O)(C[C@@H](O)C[C@@H](O)[C@H](O)CC[C@@H](O)C[C@@H](O)CC(=O)O[C@H]1C)C[C@H](O)[C@H]2C(=O)O [Amphotericin B, reference compound] | – | – | – | – | – | – | – | – | – | pIC50 (Leishmania donovani; positive control, sentence ends with ref 40, read-out: IC50 of positive control, antileishmanial assay): 7.12
COc1cccc2c1C(=O)c1c(O)c3c(c(O)c1C2=O)C[C@@](O)(C(=O)CO)C[C@@H]3O[C@H]1C[C@H](N)[C@H](O)[C@H](C)O1 [Adriamycin, reference compound] | 0.25 | 0.86 | 0.16 | 0.6 | – | 0.033 | – | – | 0.21 | –
COc1cc(OC(C)=O)c2c(c1Cl)/C=C/C[C@H](OC(C)=O)[C@H](OC(C)=O)[C@@H](OC(C)=O)CCC[C@H](C)OC2=O [Compound 19] | – | – | – | – | I | – | – | – | – | IC50 at 48 h [1]: > 10 µM; IC50 at 72 h [2]: > 10 µM; IC50 at 72 h [3]: > 10 µM; IC50 at 72 h [4]: > 10 µM; IC50 at 72 h [5]: > 10 µM; pIC50 (Plasmodium falciparum; [13]): < 4.51; pIC50 (Leishmania donovani; [14]): < 4.80; IC50 at 72 h [6]: > 10 µM
COc1cc(O)c2c(c1)/C=C/C[C@H](O)[C@@H]1OC(C)(C)O[C@H]1/C=C/C[C@H](C)OC2=O [Compound 1, cochliomycin A] | > 10 | > 10 | > 10 | > 10 | I | > 10 | 4.51 | < 4.80 | > 10 | CC50 at 48 h [7, 12]: 96 µM
COc1cc(O)c2c(c1)/C=C/C[C@H](O)[C@H](O)C(=O)CCC[C@H](C)OC2=O [Compound 9] | – | – | – | – | I | – | – | – | – | CC50 at 48 h [7]: 131 µM; IC50 at 48 h [1]: > 10 µM; IC50 at 72 h [2]: > 10 µM; IC50 at 72 h [3]: > 10 µM; IC50 at 72 h [4]: > 10 µM; IC50 at 72 h [5]: > 10 µM; pIC50 (Plasmodium falciparum; [13]): < 4.51; pIC50 (Leishmania donovani; [14]): < 4.80; IC50 at 72 h [6]: > 10 µM
CCC(=O)Oc1cc(OC)cc2c1C(=O)O[C@@H](C)C/C=C/[C@H](OC(=O)CC)[C@@H](OC(=O)CC)[C@@H](OC(=O)CC)C/C=C/2 [Compound 14] | > 10 | > 10 | > 10 | > 10 | I | > 10 | < 4.51 | < 4.80 | > 10 | –
COc1cc(O)c2c(c1Cl)/C=C/C[C@H](O)[C@H](O)[C@@H](O)CCC[C@H](C)OC2=O [Compound 2, cochliomycin C] | – | – | – | – | I | – | – | – | – | IC50 at 48 h [1]: > 10 µM; IC50 at 72 h [2]: > 10 µM; IC50 at 72 h [3]: > 10 µM; IC50 at 72 h [4]: > 10 µM; IC50 at 72 h [5]: > 10 µM; pIC50 (Plasmodium falciparum; [13]): < 4.51; pIC50 (Leishmania donovani; [14]): < 4.80; IC50 at 72 h [6]: > 10 µM
